Literature values, collected in patent US20230372346A1, “TREATMENT REGIMENS FOR EXON-20 INSERTION MUTANT EGFR CANCERS” (CULLINAN PEARL CORP., priority 2020, published 2023).

Details: human, in vivo; cited from earlier work

In the case of `C=CC(=O)Nc1cc(Nc2ncc(C(=O)OC(C)C)c(-c3cn(C)c4ccccc34)n2)c(OC)cc1N(C)CCN(C)C` [TAK-788, mobocertinib], the “toxicity in the lowest-dose cohort where stable diseases or partial responses were observed” value is listed as “presented both grade 3 or above TRAEs and dose-limiting toxicities”.
